From patent US20250269050A1, “CYCLIC DICHALCOGENIDE ADC LINKER UNITS AND USES THEREOF” (priority 2024, published 2025) come the findings set out here.

The nature of data set [1]: In vivo pharmacokinetics experiment in mice (intact immunoconjugate in plasma, MS-based). The settings on record: single 7 mg/kg intravenous injection, plasma up to 380 h, FIG. 3. How it is done: Mice are maintained in individually ventilated cages at constant temperature (22±2° C., air-conditioned) and humidity (45-65%), under optimum hygienic conditions with 10-15 air changes per hour. A cycle of 12 h artificial fluorescent lightning and 12 h darkness is applied and animal behavior is monitored daily throughout the study. The mice receive food and water ad libitum.
To study the in vivo disposition of molecules of the invention mice are treated once with 6, 7 or commercial Trodelvy® at a dose of 7 mg/kg by intravenous injection. Plasma samples are collected at the following time points: predose, postdose: 2 min, 6 h, 24 h, 48 h, 72 h, 168 h, 240 h, and 380 h. All samples are analyzed using an MS-based analytical method for quantification of the intact immunoconjugates and of the free molecular cargo in the mouse plasma.

In data set [2] the test system is Trop-2-positive breast cancer cancer cell line. The data set can be described thus: Anti-cancer efficacy study in mice, Trop-2-positive cancer model. It is filed as in vivo. The settings on record: single treatment at day 7, 3 mg/kg intravenous.

In the case of Trodelvy®, the “intact immunoconjugate in mouse plasma over time” value in data set [1] was “fast and significant loss of intact immunoconjugate”. Further, the “tumor growth compared to the vehicle group” value in data set [2] (FIG. 4) is “strong suppression of tumor growth”. The “duration of tumor response” value in data set [2] (up to day 57, FIG. 4) is listed as “tumors significantly start to grow again after day 30”.
